Experimental data published in patent publication US20240287164A1, “ANTIBODIES SPECIFIC TO NELL2 AND METHODS OF USE” (BOARD OF REGENTS, THE UNIVERSITY OF TEXAS SYSTEM, priority 2021, published 2024).
“Also recorded” adds a separate entry of the source. Where a SMILES comes first, the peptide text is derived from it. The star is where a group is joined. Cbz = O=C(OCc1ccccc1)*

Tests used:
[1] = tested on: CD133^low population; assay: Chemotherapeutic drug treatment of CD133high and CD133low populations; assay type: cell-based, human; conditions: for CD133low population after prolonged treatment: FIG. 4M
Experimental: Flow cytometry. Cells were trypsinized, washed with FACS wash buffer (PBS, 0.5% BSA, 2 mM EDTA), and incubated with PE-conjugated human CD133/1 antibody (clone AC133, Miltenyi Biotec; 1:100 in FACS wash buffer) for 20 minutes at 4° C. Cells were washed three times with FACS wash buffer and the CD133^high and CD133^low cell populations were sorted by using BD FACSAria (Becton Dickinson). The FACSDiva 6.1.3 software (Becton Dickinson) was used for sample analysis.

[2] = target: T1, Robo3 (Homo sapiens, UniProt Q96MS0); assay: NELL2-FLAG ligand-binding assay in A-673 cells; conditions: FIG. 2B
T1 construct: endogenous in cells; host or cells: A-673 Ewing sarcoma cells
T1 sequence (Q96MS0 21-1386): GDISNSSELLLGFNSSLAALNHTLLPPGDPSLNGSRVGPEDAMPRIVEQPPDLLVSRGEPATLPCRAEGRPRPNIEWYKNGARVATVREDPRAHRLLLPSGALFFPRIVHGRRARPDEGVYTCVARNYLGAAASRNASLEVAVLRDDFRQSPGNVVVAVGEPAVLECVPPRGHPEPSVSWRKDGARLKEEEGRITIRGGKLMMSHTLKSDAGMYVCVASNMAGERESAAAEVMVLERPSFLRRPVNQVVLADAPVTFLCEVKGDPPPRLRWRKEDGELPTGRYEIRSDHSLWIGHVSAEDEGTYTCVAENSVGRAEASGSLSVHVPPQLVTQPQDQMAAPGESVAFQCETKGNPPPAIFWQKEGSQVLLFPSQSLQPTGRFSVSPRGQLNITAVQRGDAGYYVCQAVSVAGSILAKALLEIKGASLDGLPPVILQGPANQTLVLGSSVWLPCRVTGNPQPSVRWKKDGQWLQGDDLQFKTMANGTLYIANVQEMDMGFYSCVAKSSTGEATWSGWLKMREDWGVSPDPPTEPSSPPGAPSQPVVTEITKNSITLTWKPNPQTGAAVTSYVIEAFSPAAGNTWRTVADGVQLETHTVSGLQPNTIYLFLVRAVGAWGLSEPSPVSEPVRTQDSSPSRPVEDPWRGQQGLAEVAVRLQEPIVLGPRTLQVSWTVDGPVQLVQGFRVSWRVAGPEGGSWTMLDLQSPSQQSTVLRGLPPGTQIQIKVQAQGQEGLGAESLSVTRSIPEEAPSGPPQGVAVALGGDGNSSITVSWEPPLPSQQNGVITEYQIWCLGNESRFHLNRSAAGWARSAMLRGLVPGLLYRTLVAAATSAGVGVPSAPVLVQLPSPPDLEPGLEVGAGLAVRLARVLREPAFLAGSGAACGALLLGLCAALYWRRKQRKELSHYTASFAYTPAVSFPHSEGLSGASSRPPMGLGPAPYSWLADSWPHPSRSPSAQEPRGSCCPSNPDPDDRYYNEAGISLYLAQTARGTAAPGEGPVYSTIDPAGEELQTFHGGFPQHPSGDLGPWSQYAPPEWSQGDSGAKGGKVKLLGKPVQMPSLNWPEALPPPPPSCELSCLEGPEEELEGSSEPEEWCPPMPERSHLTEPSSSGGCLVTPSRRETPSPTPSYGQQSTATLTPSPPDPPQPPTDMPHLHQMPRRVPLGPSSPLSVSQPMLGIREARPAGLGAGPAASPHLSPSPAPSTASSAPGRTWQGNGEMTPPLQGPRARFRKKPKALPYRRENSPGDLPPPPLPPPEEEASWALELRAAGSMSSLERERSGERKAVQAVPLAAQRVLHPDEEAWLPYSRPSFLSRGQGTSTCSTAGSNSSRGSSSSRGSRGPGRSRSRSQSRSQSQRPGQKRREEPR
Experimental: Robo3 expression was readily detectable in Ewing sarcoma tumors and cell lines, but undetectable in mesenchymal stem cells (FIG. 2A). The role of Robo3 as the NELL2 receptor in Ewing sarcoma was tested using ligand-binding assays (FIG. 2B). C-terminally FLAG-tagged NELL2 was produced from transfected 293T/HEK293T cells and was incubated with A-673 cells that were transfected with Robo3 siRNA pool or control siRNA pool. After washing the cells to remove unbound NELL2-FLAG, a whole cell lysate was prepared and analyzed by immunoblotting to assess the binding of NELL2-FLAG to A-673 cells. […] The specificity of the NELL2-Robo3 interaction was further confirmed by ligand-binding assays using alkaline phosphatase-fused NELL2 (NELL2-AP) (FIG. 2C). NELL2-AP bound to COS cells expressing Robo3, but not Robo1 or vector (FIG. 2C).

[3] = tested on: BAF complexes; assay: BAF subunit protein levels by immunoblotting in Ewing sarcoma cells; assay type: cell-based, human
Description: Immunoblotting. […] The following antibodies were used: rabbit polyclonal anti-FLI1 (ab15289, Abcam); mouse monoclonal anti-FLAG M2 (F1804, MilliporeSigma): rabbit monoclonal anti-NELL2 (ab181376, Abcam); goat polyclonal anti-PGK1 (sc-17943, Santa Cruz Biotechnology); rabbit polyclonal anti-Robo3 (LS-C345713, LSBio); goat polyclonal anti-Robo3 (PA5-18714, Thermo Fisher Scientific); mouse monoclonal anti-cdc42 (ACD03, Cytoskeleton); rabbit polyclonal anti-Rac1/2/3 (2465, Cell Signaling Technologies); rabbit polyclonal anti-Rho A (2117, Cell Signaling Technologies); goat polyclonal anti-BRG1 (A303-877A, Bethyl Laboratories); rabbit monoclonal anti-BRG1 (49360, Cell Signaling Technologies); rabbit polyclonal anti-BRM (A301-014A-T, Bethyl Laboratories); mouse monoclonal anti-ARID1A/BAF250) (sc-32761, Santa Cruz Biotechnology); rabbit polyclonal anti-BAF170 (A301-039A-T, Bethyl Laboratories); rabbit monoclonal anti-BAF155 (11956, Cell Signaling Technologies); rabbit polyclonal anti-BAF60B (A301-596A-T, Bethyl Laboratories); rabbit polyclonal anti-BAF57 (A300-810A-T, Bethyl Laboratories); rabbit polyclonal anti-BAF53A (A301-391A-T, Bethyl Laboratories); rabbit monoclonal anti-BAF47 (8745, Cell Signaling Technologies); rabbit polyclonal anti-BRD9 (A303-781A-T, Bethyl Laboratories); rabbit monoclonal anti-SS18 (21792, Cell Signaling Technologies); rabbit monoclonal anti-CD133 (64326, Cell Signaling Technologies); rabbit polyclonal anti-srGAP1 (A301-286A-T, Bethyl Laboratories); rabbit polyclonal anti-srGAP2 (GTX130797, GeneTex); mouse monoclonal anti-tubulin (DMIA, Thermo Fisher Scientific); rabbit polyclonal anti-β-actin (4967, Cell Signaling Technologies); mouse monoclonal anti-Rpb1 (2629, Cell Signaling Technologies); rabbit monoclonal anti-cdc6 (3387, Cell Signaling Technologies); rabbit monoclonal anti-caveolin-1 (3267, Cell Signaling Technologies); rabbit polyclonal anti-phospho-caveolin-1 (3251, Cell Signaling Technologies); rabbit monoclonal anti-Src (2123, Cell Signaling Technologies); rabbit monoclonal anti-phospho-Src Family (6943, Cell Signaling Technologies); and rabbit polyclonal anti-GDF6 (NBP1-91934, Novus Biologicals). The following HRP-conjugated secondary antibodies were used: goat anti-rabbit (7074) and goat anti-mouse (7076) (Cell Signaling Technologies); donkey anti-goat (A50)-201P, Bethyl Laboratories).

[4] = tested on: A-673 and EW8 cells; assay: Proliferation of NELL2- or Robo3-silenced Ewing sarcoma cells (IncuCyte); assay type: cell-based, human; conditions: 5 μM ML141; A-673 and EW8 cells; FIG. 3E
Experimental: Transfection and viral infection. Calcium phosphate co-precipitation was used for transfection of 293T cells. Lentiviruses were prepared by transfection in 293T cells following System Biosciences' protocol, and the cells infected with lentiviruses were selected with 2 μg/mL puromycin for 48 hours. The target sequences for shRNAs are as follows: FLI1 C-terminus shRNA, […] (SEQ ID NO: 20); luciferase shRNA, […] (SEQ ID NO: 21); NELL2 shRNA-1, […] (SEQ ID NO: 22); and NELL2 shRNA-2, […] (SEQ ID NO: 23). The following siRNAs were used: human NELL2 siRNA SMARTpool (M-012185-00); Dharmacon), human Robo3 siRNA SMARTpool (M-026504-00; Dharmacon), human Robo3 siRNAs NM_022370 (SASI_Hs01_00099511, SASI_Hs01_00099512, SASI_Hs01_00099513, SASI_Hs01_00099514, SASI_Hs01_00099515 and SASI_Hs01_00099516; MilliporeSigma), human cdc42 siRNA SMARTpool (M-005057-01; Dharmacon), human CD133 siRNA SMARTpool (M-010630-01; Dharmacon), human srGAP1 siRNA SMARTpool (M-026974-00; Dharmacon), srGAP2 siRNA SMARTpool (M-021531-03; Dharmacon), human caveolin-1 siRNA SMARTpool (M-003467-01; Dharmacon), human GDF6 siRNA SMARTpool (M-0330055-01; Dharmacon), and Non-Targeting siRNA Pool #2 (D-0012Jun. 14, 2005; Dharmacon), siRNA transfection of cell lines was performed using Lipofectamine™ RNAiMAX Transfection Reagent (Thermo Fisher).
Cell proliferation and xenograft tumorigenicity assays. Anchorage-dependent cell proliferation was assessed by IncuCyte live-cell imaging system (Essen BioScience). The IncuCyte system monitors cell proliferation by analyzing the occupied area (% confluence) of cell images over time. At least four fields from four wells were assayed for each experimental condition. The cell seeding density was 2000 cells per well in a 96-well plate. […] Anchorage-independent cell proliferation was evaluated by soft agar colony formation assays. […] Colonies were grown for three weeks and counted. Colonies (>50 cells) were scored by randomly counting 10 fields per dish. […] Tumor growth was monitored weekly using a caliper. […]

[5] = tested on: CD133^low population; assay: Proliferation of sorted CD133low population (IncuCyte); assay type: cell-based, human; conditions: CD133^low population treated with ML141
Experimental: (§1) Cell proliferation and xenograft tumorigenicity assays. Anchorage-dependent cell proliferation was assessed by IncuCyte live-cell imaging system (Essen BioScience). The IncuCyte system monitors cell proliferation by analyzing the occupied area (% confluence) of cell images over time. At least four fields from four wells were assayed for each experimental condition. The cell seeding density was 2000 cells per well in a 96-well plate. For each assay, biological replicates were performed to confirm the reproducibility of results. Anchorage-independent cell proliferation was evaluated by soft agar colony formation assays. A-673 cells were infected with lentiviruses expressing shRNAs against NELL2 or scrambled shRNA and were selected with 2 μg/ml puromycin. Four days after infection, 4×10^3 cells were plated in soft agar. The soft agar cultures were composed of two layers; a base layer [4 ml in a 60-mm dish; DMEM/10% fetal bovine serum/0.6% noble agar (A5431, MilliporeSigma)/penicillin/streptomycin] and a cell layer (2 ml in a 60-mm dish; DMEM/10% fetal bovine serum/0.3% noble agar/penicillin/streptomycin). Colonies were grown for three weeks and counted. Colonies (>50 cells) were scored by randomly counting 10 fields per dish. Sphere formation assays were done (Dasgupta, A., et al. (2017) Oncotarget 8, 77292-77308) using ultra-low attachment 6-well plates (Corning: seeding density 1×10^4 cells/well) and DMEM/F-12 medium supplemented with B27, human recombinant epidermal growth factor (20 ng/ml), and basic fibroblast growth factor (20 ng/ml). For xenograft tumorigenicity assays, cells were subcutaneously injected into the flanks of SCID mice (2×10^6 cells/injection, five mice/group). Tumor growth was monitored weekly using a caliper. While it is not possible to predict the effect size, the sample size of five mice per group was chosen based on experience with xenograft experiments. Mice were randomly allocated to treatment groups. Blinding of the researcher measuring tumor size was employed.
Flow cytometry. […]

[6] = tested on: Rac. Ras, or Rab; conditions: Surviladze et al. 2010; cited from earlier work
[7] = tested on: A673 Ewing sarcoma cells; assay: Growth inhibition screen of anti-NELL2 hybridoma clones / mAbs on Ewing sarcoma cell proliferation; assay type: cell-based, human; conditions: mAbs used at 1 μg/ml, FIG. 6
Experimental: as §1, with “Sphere formation assays were done (Dasgupta, A., et al. (2017) Oncotarget 8, 77292-77308) using ultra-low attachment 6-well plates (Corning: seeding density 1×10^4 cells/well) and DMEM/F-12 medium supplemented with B27, human recombinant epidermal growth factor (20 ng/ml), and basic fibroblast growth factor (20 ng/ml). For xenograft tumorigenicity assays, cells were subcutaneously injected into the flanks of SCID mice (2×10^6 cells/injection, five mice/group).” left out, “While it is not possible to predict the effect size, the sample size of five mice per group was chosen based on experience with xenograft experiments. Mice were randomly allocated to treatment groups. Blinding of the researcher measuring tumor size was employed.” left out

[8] = target: T2, NELL2 EGF-like repeats (residue 397-637) (Homo sapiens (Human), UniProt Q99435 397-637); assay: immunogen ELISA of hybridoma clones
T2 construct: also called EGF-like repeat domain of NELL2; immunogen
T2 sequence (Q99435 397-637 limits assumed): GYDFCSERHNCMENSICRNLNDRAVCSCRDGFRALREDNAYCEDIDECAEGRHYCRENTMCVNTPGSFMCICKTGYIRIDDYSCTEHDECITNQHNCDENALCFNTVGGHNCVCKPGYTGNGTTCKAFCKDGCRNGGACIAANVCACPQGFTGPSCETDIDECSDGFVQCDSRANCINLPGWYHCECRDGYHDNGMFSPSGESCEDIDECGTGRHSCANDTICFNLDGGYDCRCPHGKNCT

## COc1cccc2c1C(=O)c1c(O)c3c(c(O)c1C2=O)C[C@@](O)(C(=O)CO)C[C@@H]3O[C@H]1C[C@H](N)[C@H](O)[C@H](C)O1 [doxorubicin]
[1]
  Resistance of CD133low versus CD133high population to the drug: more resistant
  CD133low population after prolonged treatment: enriched the CD133^low population

## N.N.[Cl][Pt][Cl] [cisplatin]
[1]
  Resistance of CD133low versus CD133high population to the drug: more resistant
  CD133low population after prolonged treatment: enriched the CD133^low population

## NELL2-FLAG: C-terminally FLAG-tagged NELL2 produced from transfected 293T/HEK293T cells
[2]
  Binding to control siRNA transfected A-673 cells: bound
[2]; Robo3 siRNA pool
  Binding to Robo3-silenced A-673 cells: abolished

## CC(C)C[C@@H](C=O)NC(=O)[C@H](CC(C)C)NC(=O)[C@H](CC(C)C)NC(=O)OCc1ccccc1 [MG-132, reference compound] (Cbz-Leu-Leu-Leu-aldehyde)
[3]; CN04 treatment plus MG-132
  Protein levels of BRG1, BAF250A, BAF155, and BAF47 reduced by CN04, effect of proteasome inhibitor: restored

## ML141 [reference compound]
[4]
  Proliferation inhibition by NELL2 silencing or Robo3 silencing, effect of cdc42 inhibitor: abrogates the proliferation inhibition; also recorded: abolished
[3]; CD133^low population treated with ML141
  BRG1, BAF155, and BAF47 protein levels in CD133low population: increased BRG1, BAF155, and BAF47 protein levels
[3]; Ewing sarcoma cells, NELL2 silencing
  Reduction of BRG1, BAF250A, BAF155, and BAF47 by NELL2 silencing, effect of cdc42 inhibitor: abolished this response
[5]
  Cell proliferation of CD133low population: increased cell proliferation
[6]
  Inhibition of Rac, Ras, or Rab: does not inhibit

B1: anti-NELL2 mouse monoclonal antibody clone #15 (antibody, V domains shown)
VH: EVKLVESGGGLVQPGGSLKLSCATSGFTFSDYYLYWVRQTPEKRLEWVAYISNGGDITYYPDTVKGRFAISRDNAKNTLYLQMSRLKSEDTAMYYCARGRVRSYYGNPDAMDFWGQGTSVTVSS
VL: DVVMTQTPLSLPVSLGDQASISCRSSQSLVHSNGNTYLHWYLQKPGQSPKLLIYKVSKRFSGVPDRFSGSGSGTDFTLKITRVEAEDLGVYFCSQSIYVPHTFGGGTKLEIK
notes: Mouse hybridoma mAb; also called NELL2 mAb
[7]
  Ewing sarcoma cell proliferation: strongly inhibited
[8]
  binding result: binds

B2: anti-NELL2 mouse monoclonal antibody clone #17 (antibody, V domains shown)
VH: DVQLVESGGGLVQPGGSRKLSCAASGFTFSSFGMHWVRQAPEKGLEWVAYVSGGSSTIYYADTVKGRFTISRDNPKNTLFLQMTSLRSEDTAMYYCARSFSLLRLPVYFDFWGQGTTLTVSS
VL: DIQMTQSPSSLSASLGERVSLTCRASQEISDYLTWLQQKPDGTIKRLIYAASTLDSGVPKRFSGSRSGSDYSLTISSLESEDFADYYCLQYASFPLTFGAGTKLELK
notes: as for B1
[7]
  Ewing sarcoma cell proliferation: strongly inhibited
[8]
  binding result: binds
